Inconclusive results are not listed.
Tested on: M. tuberculosis H37Rv growth inhibition, 7H9 media
Assay: M. tuberculosis growth inhibition, HTS (AID 449762);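 note: bacterial growth assessed after seven days of incubation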
Conditions: for IC90: measured here: IC90 growth inhibition

SMILES | IC50 | IC90
COc1ccc(C[C@H](N)C(=O)N[C@H]2[C@@H](O)[C@H](n3cnc4c(N(C)C)ncnc43)O[C@@H]2CO)cc1 | 3.14 µM | 3.54 µM
Cc1nc(NC(=O)CC(C)C)sc1-c1csc(Nc2ccc(Cl)cc2Cl)n1 | 46.3 µM | 52.5 µM
O=S(=O)(Nc1ccc2[nH]ncc2c1)c1ccccc1Cl | 11.6 µM | 19.5 µM
C=CCC1(CC=C)CCCN1C(=O)c1cc(COc2ccc(-n3cncn3)cc2)on1 | 41.8 µM | > 100 µM
CCOC(=O)c1[nH]c(CN2CCN(c3ccc(OC)cc3)CC2)c(C(=O)OCC)c1C | 23 µM | 26 µM
CC1(c2ccc(OC(F)F)cc2)NC(=O)N(CC(=O)c2ccc3c(c2)OCO3)C1=O (stereo not given) | 23.6 µM | 32.2 µM
Cn1cnc([N+](=O)[O-])c1Sc1ccc(Br)cc1 | 8.81 µM | 16.9 µM
NNc1nc2ccc(Cl)cc2s1 | 42.5 µM | 46.6 µM
O=c1c(C=NCCN2CCNCC2)c(O)n(C2CCCCC2)c(=O)n1C1CCCCC1 | 21 µM | 28.5 µM
CCCc1cc2c(cc1NC(=O)c1ccccc1Cl)OCO2 | 1.98 µM | > 100 µM
O=C(CCl)Nc1nccs1 | 2.01 µM | 4.71 µM
COc1ccc(Nc2nc(N)c([N+](=O)[O-])c(NC3CCCCC3)n2)cc1 | 9.76 µM | 18.8 µM
CCc1cc(C(=O)Nc2nc(-c3ccccn3)cs2)sc1C | 1.26 µM | 15.3 µM
CCCCC(=O)/C=C/n1c(=S)oc2ccccc21 | 28.2 µM | > 100 µM
O=c1[nH]c(=O)n(C2CCCO2)cc1F (stereo not given) | 29 µM | 55.3 µM
CC(C)c1ccc2c(c1)CCC1C(C)(CN)CCCC21C (stereo not given) | 15.7 µM | 25.6 µM
Cc1ccc(Cl)cc1N1CCN(Cc2nc3ccsc3c(=O)[nH]2)CC1 | 83.1 µM | > 100 µM
CC(C)c1nnc(NC(=O)CCC(=O)N2CCN(c3ccc(Cl)cc3)CC2)s1 | 11.8 µM | 29.5 µM
O=[N+]([O-])c1cc(-c2nc(-c3ccncc3)no2)cc([N+](=O)[O-])c1 | 3.64 µM | 11.4 µM
O=C(Nc1nc2ccccc2[nH]1)C12CC3CC(CC(C3)C1)C2 | 10.3 µM | 34.5 µM
Cc1ccc(S(=O)(=O)N2CCC(C(=O)OCc3ccccc3)CC2)cc1C | 22.1 µM | 40.6 µM
C=CCN1CC[C@]23c4c5ccc(O)c4O[C@H]2/C(=N/NC(=O)c2ccccc2)CC[C@@]3(O)[C@H]1C5 | 79.5 µM | > 100 µM

SMILES | IC50 | IC90
COc1ccccc1NC(=O)C(C)OC(=O)/C=C/c1ccc2ccccc2n1 (stereo not given) | 3.82 µM | 11.4 µM
O=[N+]([O-])c1cc([N+](=O)[O-])c2c(=Nc3ccccc3)n(-c3ccccc3)n(O)c2c1 | 6.35 µM | 9.25 µM
O=C(CSC1=NC(=O)C(c2ccccc2)C(=O)N1)Nc1ccccc1Cl (stereo not given) | 1.86 µM | 6.58 µM
CCCCOC(=O)CCN1C(=O)/C(=C2\SC(=S)N(CCC(=O)OCCCC)C2=O)SC1=S | 2.98 µM | 6.96 µM
CC(=O)c1c(N2CCCC2)[nH]c(-c2ccccc2)nc1=S | 16.2 µM | 67.1 µM
Cc1ccc2nc(-c3ccncc3)cc(-c3ccccc3)c2c1 | 36.1 µM | 47.2 µM
CCCC(NCC(O)COc1ccc(-c2ccccc2)cc1)c1ccccc1 (stereo not given) | 11.5 µM | 14.9 µM
O=C(NCCCN1CCOCC1)c1cc2c([nH]c3ccccc32)c(-c2cccc(Br)c2)n1 | 10.4 µM | 13.4 µM
Fc1ccc(N/N=C2/CC(c3ccccc3)Oc3ccccc32)c(F)c1 (stereo not given) |  | > 100 µM
Oc1ccc2ccccc2c1N=Nc1nccs1 | < 0.2 µM | 2.01 µM
Cc1ccc2c(c1)Oc1ccc(NC(=O)CCl)cc1C(=O)N2 | 7.88 µM | > 100 µM
COc1ccccc1C(CNC(=O)C(C)(C)Oc1ccc(Cl)cc1)N1CCCC1 (stereo not given) | 23.5 µM | 26.5 µM
Cc1ccc(-c2csc3ncnc(Nc4ccc(N5CCOCC5)cc4)c23)cc1 | 18.4 µM | 50.1 µM
COc1cc(C#Cc2c(-c3cncn3C)n(C)c3ccc(-c4cnc(N5CCOCC5)nc4)cc23)cc(OC)c1 | 45.8 µM | 51.7 µM
N#C/C(=C/c1ccc(Sc2nc3ccccc3[nH]2)o1)c1cccc(Br)c1 | 77.6 µM | > 100 µM
[O-][n+]1c2ccccc2c2n1CCN1CCOC21c1ccc(Cl)cc1 (stereo not given) | 26.1 µM | 68 µM
O=C(Nc1cc(C(F)(F)F)ccc1-n1cncn1)c1ccc([N+](=O)[O-])o1 | 9.55 µM | 32.5 µM
CS(=O)(=O)c1ccc([C@@H](O)[C@@H](CF)NC(=O)C(Cl)Cl)cc1 | 10.1 µM | 24.7 µM
COc1cc2cnc(-c3ccccc3)c(-c3ccc(C(F)(F)F)cc3)c2cc1OC | 44 µM | > 50 µM
O=c1[nH]c(CSc2cccc[n+]2[O-])nc2ccccc12 | 96.4 µM | > 100 µM
O=C(C/C=N\OCc1ccc([N+](=O)[O-])cc1)Nc1ccc(F)cc1F | 20.3 µM | 98.4 µM

From PubChem BioAssay AID449762 (Southern Research Specialized Biocontainment Screening …, 2010)
